Values after ≈ are worked out from the molar mass of the structure shown.
Columns and labels:
[1] = Half life in human at 220 mg/m2 administered as DMSO/egg phospholipid formulation; assay type: ADME, organism-based; details: in vivo
[2] = Clearance in plasma of mouse bearing human A2780 cells at 80 mg/kg, ip administered as DMSO/egg phospholipid formulation; assay type: ADME, organism-based; parameters: dose 80 mg/kg, route intraperitoneal
[3] = Half life in plasma of mouse bearing human A2780 cells at 80 mg/kg, ip administered as DMSO/egg phospholipid formulation; assay type: ADME, organism-based; parameters: dose 80 mg/kg, route intraperitoneal
NCI-H1650 = assay: Antitumor activity against human NCI-H1650 cells xenografted in mouse at 100 mg/kg administered daily for 5 days a week; assay type: functional; details: NCI-H1650, 120 h, read-out: TGI
[4] = Cmax in plasma of mouse bearing human A2780 cells at 80 mg/kg, ip administered as DMSO/egg phospholipid formulation; assay type: ADME, organism-based; parameters: dose 80 mg/kg, route intraperitoneal
[5] = Clearance in tumor of mouse bearing human A2780 cells at 80 mg/kg, ip administered as DMSO/egg phospholipid formulation; assay type: ADME, organism-based, Neoplasm; parameters: dose 80 mg/kg, route intraperitoneal; details: in vivo
[6] = Half life in liver of mouse bearing human A2780 cells at 80 mg/kg, ip administered as DMSO/egg phospholipid formulation; assay type: ADME, organism-based; parameters: dose 80 mg/kg, route intraperitoneal
[7] = Cmax in tumor of mouse bearing human A2780 cells at 80 mg/kg, ip administered as DMSO/egg phospholipid formulation; assay type: ADME, organism-based, Neoplasm; parameters: dose 80 mg/kg, route intraperitoneal; details: read-out: Cmax_tumor
[8] = Chemical stability assessed as half life; assay type: physicochemical
A2780 = assay: Antitumor activity against human A2780 cells xenografted in mouse at 80 mg/kg, ip administered as DMSO/egg phospholipid formulation; assay type: functional; details: route intraperitoneal, read-out: TGI
[9] = AUC in human at 220 mg/m2 administered as DMSO/egg phospholipid formulation; assay type: ADME, organism-based; details: plasma
[10] = Clearance in human at 220 mg/m2 administered as DMSO/egg phospholipid formulation; assay type: ADME, organism-based; details: in vivo
[11] = AUC in tumor of mouse bearing human A2780 cells at 80 mg/kg, ip administered as DMSO/egg phospholipid formulation; assay type: ADME, organism-based, Neoplasm; parameters: dose 80 mg/kg, route intraperitoneal
[12] = Cmax in liver of mouse bearing human A2780 cells at 80 mg/kg, ip administered as DMSO/egg phospholipid formulation; assay type: ADME, organism-based; parameters: dose 80 mg/kg, route intraperitoneal
Liver [13] = assay: Clearance in liver of mouse bearing human A2780 cells at 80 mg/kg, ip administered as DMSO/egg phospholipid formulation; assay type: ADME, organism-based; parameters: dose 80 mg/kg, route intraperitoneal; details: in vivo
Plasma = assay: Apparent volume of distribution in plasma of mouse bearing human A2780 cells at 80 mg/kg, ip administered as DMSO/egg phospholipid formulation; assay type: ADME, organism-based; parameters: dose 80 mg/kg, route intraperitoneal; details: in vivo
[14] = Cmax in human at 220 mg/m2 administered as DMSO/egg phospholipid formulation; assay type: ADME, organism-based; details: in vivo
[15] = Solubility in water; assay type: physicochemical
Homo sapiens [16] = assay: Toxicity in human assessed as maximum tolerated dose administered on 3 days schedule administered as DMSO/egg phospholipid formulation; assay type: organism-based; details: in vivo, 72 h
Homo sapiens [17] = assay: Toxicity in human assessed as maximum tolerated dose administered on daily schedule administered as DMSO/egg phospholipid formulation; assay type: organism-based; details: in vivo
Liver [18] = assay: Apparent volume of distribution in liver of mouse bearing human A2780 cells at 80 mg/kg, ip administered as DMSO/egg phospholipid formulation; assay type: ADME, organism-based; parameters: dose 80 mg/kg, route intraperitoneal; details: in vivo
[19] = AUC in plasma of mouse bearing human A2780 cells at 80 mg/kg, ip administered as DMSO/egg phospholipid formulation; assay type: ADME, organism-based; parameters: dose 80 mg/kg, route intraperitoneal
[20] = AUC in liver of mouse bearing human A2780 cells at 80 mg/kg, ip administered as DMSO/egg phospholipid formulation; assay type: ADME, organism-based; parameters: dose 80 mg/kg, route intraperitoneal
[21] = Apparent volume of distribution in tumor of mouse bearing human A2780 cells at 80 mg/kg, ip administered as DMSO/egg phospholipid formulation; assay type: ADME, organism-based, Neoplasm; parameters: dose 80 mg/kg, route intraperitoneal; details: in vivo
[22] = Half life in tumor of mouse bearing human A2780 cells at 80 mg/kg, ip administered as DMSO/egg phospholipid formulation; assay type: ADME, organism-based, Neoplasm; parameters: dose 80 mg/kg, route intraperitoneal
[23] = Tmax in mouse at 100 mg/kg, po; assay type: ADME, organism-based; parameters: dose 100 mg/kg, route oral; details: in vivo
[24] = Half life in mouse at 100 mg/kg, po; assay type: ADME, organism-based; parameters: dose 100 mg/kg, route oral; details: in vivo
NCI-N87 = assay: animal or person; details: Mus musculus, NCI-N87, po, read-out: TGI
Description: Antitumor activity against human NCI-N87 cells xenografted in BALB/c mouse at 125 mg/kg, po administered in QDx5 schedule

[25] = AUC in mouse at 100 mg/kg, po; assay type: ADME, organism-based; parameters: dose 100 mg/kg, route oral; details: plasma
animal or person [26] = details: Homo sapiens, U-87 MG, po, read-out: TGI
Description: Antitumor activity against human U87 cells xenografted in BALB/c mouse at 75 mg/kg, po administered in BIDx5 schedule

Mus musculus = assay: Toxicity in BALB/c mouse assessed as body weight loss at 125 mg/kg, po administered in QDx5 schedule; assay type: organism-based; parameters: dose 125 mg/kg, route oral; details: in vivo
BT-474 = assay: animal or person; details: Mus musculus, BT-474, po, read-out: TGI
Description: Antitumor activity against human BT474 cells xenografted in BALB/c mouse at 120 mg/kg, po administered in QDx5 schedule

[27] = Cmax in mouse at 100 mg/kg, po; assay type: ADME, organism-based; parameters: dose 100 mg/kg, route oral; details: in vivo
SK-OV-3 = assay: animal or person; details: Mus musculus, SK-OV-3, po, read-out: TGI
Description: Antitumor activity against human SKOV3 cells xenografted in BALB/c mouse at 124 mg/kg, po administered in QDx5 schedule

PANC-1 = assay: animal or person; details: Mus musculus, PANC-1, po, read-out: TGI
Description: Antitumor activity against human PANC1 cells xenografted in BALB/c mouse at 124 mg/kg, po administered in QDx5 schedule

animal or person [28] = details: Homo sapiens, CWR22, po, read-out: TGI
Description: Antitumor activity against human CWR22 cells xenografted in BALB/c mouse at 120 mg/kg, po administered in QDx5 schedule

[29] = target: T1, Heat shock protein HSP 90-beta (Homo sapiens, UniProt P08238)
Description: (§1) Inhibition of HSP90-mediated client protein HER2 degradation

[30] = target: T1, Heat shock protein HSP 90-beta; remark: listed apart in the source
Description: Binding affinity to HSP90 under non-reducing conditions in absence of TECP

[31] = target: T1, Heat shock protein HSP 90-beta; remark: listed apart in the source
Description: as §1

[32] = target: T1, Heat shock protein HSP 90-beta; remark: listed apart in the source
Description: Binding affinity to HSP90 under reducing conditions in presence of TECP

[33] = Tmax in human at 220 mg/m2 administered as DMSO/egg phospholipid formulation; assay type: ADME, organism-based; details: in vivo
[34] = target: T1, Heat shock protein HSP 90-beta; remark: listed apart in the source
Description: Inhibition of HSP90-mediated client protein HER2 degradation in human MCF7 cells

[35] = Volume of distribution at steady state in human at 220 mg/m2 administered as DMSO/egg phospholipid formulation; assay type: ADME, organism-based; details: in vivo, read-out: Vdss

T1 sequence (P08238 whole entry): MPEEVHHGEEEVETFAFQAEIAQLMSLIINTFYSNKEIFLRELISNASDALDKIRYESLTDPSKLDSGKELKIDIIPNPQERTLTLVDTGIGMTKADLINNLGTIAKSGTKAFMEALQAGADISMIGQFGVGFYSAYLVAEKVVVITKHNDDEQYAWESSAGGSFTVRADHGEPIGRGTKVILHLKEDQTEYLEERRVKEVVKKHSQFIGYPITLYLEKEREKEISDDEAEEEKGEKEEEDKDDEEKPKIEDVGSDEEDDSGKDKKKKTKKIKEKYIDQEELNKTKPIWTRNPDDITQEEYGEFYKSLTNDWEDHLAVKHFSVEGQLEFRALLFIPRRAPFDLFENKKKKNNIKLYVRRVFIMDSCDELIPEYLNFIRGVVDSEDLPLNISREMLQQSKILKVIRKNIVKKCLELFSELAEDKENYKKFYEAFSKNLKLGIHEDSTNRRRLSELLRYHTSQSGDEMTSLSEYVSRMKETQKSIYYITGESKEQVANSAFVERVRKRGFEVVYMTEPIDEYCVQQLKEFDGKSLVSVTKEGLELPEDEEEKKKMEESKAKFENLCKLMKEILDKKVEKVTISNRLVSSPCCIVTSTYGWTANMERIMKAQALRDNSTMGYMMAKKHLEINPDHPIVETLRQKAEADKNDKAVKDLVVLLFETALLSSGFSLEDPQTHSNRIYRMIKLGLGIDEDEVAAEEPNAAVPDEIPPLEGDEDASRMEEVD

| SMILES | half-life [1] [h] | CL/F [2] [mL/min] | half-life [3] [h] | Cmax [4] [µM] | CL [5] [L/h] | half-life [6] [h] | Cmax [7] [µM] | AUC [9] [µM·h] | AUC [11] [µM·h] | Cmax [12] [µM] | CL (Liver [13]) [L/h] | Vz (Plasma) [L] | Cmax [14] [µM] | Vz (Liver [18]) [L] | AUC [19] [µM·h] | AUC [20] [µM·h] | Vz [21] [L] | half-life [22] [h] | Activity [29] [nM] | also measured |
| --- | --- | --- | --- | --- | --- | --- | --- | --- | --- | --- | --- | --- | --- | --- | --- | --- | --- | --- | --- | --- |
| C=CCNC1=C2C[C@@H](C)C[C@H](OC)[C@H](O)[C@@H](C)/C=C(\C)[C@H](OC(N)=O)[C@@H](OC)/C=C\C=C(/C)C(=O)NC(=CC1=O)C2=O [TANESPIMYCIN] | 3.8 | 0.667 | 0.88 | 35 | 0.03 | 0.86 | 15 | 22 | 80 | 126 | 0.01 | 0.05 | 7.5 | 0.01 | 68 | 263 | 0.34 | 7.5 |  | inhibition in vivo at 100 mg/kg (NCI-H1650): 30%; half-life [8]: 9.8 h; inhibition in vivo at 80 mg/kg (A2780): 70%; clearance [10]: 700 mL/min; solubility [15]: 20 µg/mL (≈ 34.1 µM); MTD (Homo sapiens [16]): 220 mg/m2; MTD (Homo sapiens [17]): 56 mg/m2 |
| COc1c(C)cnc(Cn2cnc3c(Cl)nc(N)nc32)c1C [BIIB021] |  |  |  |  |  |  |  |  |  |  |  |  |  |  |  |  |  |  |  | Tmax [23]: 6 min; half-life [24]: 0.8 h; inhibition in vivo at 125 mg/kg (NCI-N87): 87%; AUC [25]: 15 µM·h; inhibition in vivo at 75 mg/kg (animal or person [26]): 70%; Activity (Mus musculus): 3%; inhibition in vivo at 120 mg/kg (BT-474): 94%; Cmax [27]: 31 µM; inhibition in vivo at 124 mg/kg (SK-OV-3): 67%; inhibition in vivo at 124 mg/kg (PANC-1): 51%; inhibition in vivo at 120 mg/kg (animal or person [28]): 85% |
| CCOP(=O)(CCn1c(Sc2nc3cccc(Cl)c3s2)nc2c(N)ncnc21)OCC |  |  |  |  |  |  |  |  |  |  |  |  |  |  |  |  |  |  | 30 |  |
| COc1ccc(I)c(Sc2nc3c(N)ncnc3n2CCNCC(C)(C)C)c1 |  |  |  |  |  |  |  |  |  |  |  |  |  |  |  |  |  |  | 30 |  |
| CO[C@H]1/C=C\C=C(/C)C(=O)NC2=CC(=O)C(N)=C(C[C@@H](C)C[C@H](OC)[C@H](O)[C@@H](C)/C=C(\C)[C@@H]1OC(N)=O)C2=O | 6.9 | 1.83 | 1.2 | 4.8 | 0.03 | 1.8 | 3.5 | 21 | 43 | 18 | 0.02 | 0.18 | 3 | 0.06 | 15 | 59 | 0.49 | 13.7 |  | Ki [30]: 21 nM; IC50 [31]: 7 nM; Ki [32]: 3 nM; Tmax [33]: 1.7 h; IC50 [34]: 12 nM; Vd [35]: 230 L |
